Laboratory results taken from ChEMBL document CHEMBL5465560, “Selectivity Literature for EUbOPEN Chemogenomic Library” (2024).

Assays:
[1] = molecular target: T1, Phosphatidylinositol 5-phosphate 4-kinase type-2 gamma (Homo sapiens) (UniProt Q8TBX8); experiment: Selectivity interaction (KinomeScan (DiscoverX)) EUB0001079a PIP4K2C; settings: at 1 µM
T1 sequence (whole entry): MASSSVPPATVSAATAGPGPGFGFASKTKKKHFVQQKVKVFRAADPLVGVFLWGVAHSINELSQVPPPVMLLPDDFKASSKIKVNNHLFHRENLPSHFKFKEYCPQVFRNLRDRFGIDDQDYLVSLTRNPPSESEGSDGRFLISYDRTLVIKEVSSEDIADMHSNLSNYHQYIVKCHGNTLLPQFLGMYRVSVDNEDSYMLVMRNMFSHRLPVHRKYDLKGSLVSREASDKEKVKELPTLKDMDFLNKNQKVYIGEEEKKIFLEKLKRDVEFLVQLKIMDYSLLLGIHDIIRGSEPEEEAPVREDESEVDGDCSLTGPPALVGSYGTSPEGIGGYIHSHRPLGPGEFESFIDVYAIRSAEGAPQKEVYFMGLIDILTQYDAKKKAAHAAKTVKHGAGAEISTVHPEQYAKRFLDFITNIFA

[2] = molecular target: Proto-oncogene tyrosine-protein kinase ROS (Homo sapiens) (UniProt P08922); experiment: Selectivity interaction (KinomeScan (DiscoverX)) EUB0001079a ROS1; settings: at 1 µM
Proto-oncogene tyrosine-protein kinase ROS (Homo sapiens), sequence (P08922 whole entry): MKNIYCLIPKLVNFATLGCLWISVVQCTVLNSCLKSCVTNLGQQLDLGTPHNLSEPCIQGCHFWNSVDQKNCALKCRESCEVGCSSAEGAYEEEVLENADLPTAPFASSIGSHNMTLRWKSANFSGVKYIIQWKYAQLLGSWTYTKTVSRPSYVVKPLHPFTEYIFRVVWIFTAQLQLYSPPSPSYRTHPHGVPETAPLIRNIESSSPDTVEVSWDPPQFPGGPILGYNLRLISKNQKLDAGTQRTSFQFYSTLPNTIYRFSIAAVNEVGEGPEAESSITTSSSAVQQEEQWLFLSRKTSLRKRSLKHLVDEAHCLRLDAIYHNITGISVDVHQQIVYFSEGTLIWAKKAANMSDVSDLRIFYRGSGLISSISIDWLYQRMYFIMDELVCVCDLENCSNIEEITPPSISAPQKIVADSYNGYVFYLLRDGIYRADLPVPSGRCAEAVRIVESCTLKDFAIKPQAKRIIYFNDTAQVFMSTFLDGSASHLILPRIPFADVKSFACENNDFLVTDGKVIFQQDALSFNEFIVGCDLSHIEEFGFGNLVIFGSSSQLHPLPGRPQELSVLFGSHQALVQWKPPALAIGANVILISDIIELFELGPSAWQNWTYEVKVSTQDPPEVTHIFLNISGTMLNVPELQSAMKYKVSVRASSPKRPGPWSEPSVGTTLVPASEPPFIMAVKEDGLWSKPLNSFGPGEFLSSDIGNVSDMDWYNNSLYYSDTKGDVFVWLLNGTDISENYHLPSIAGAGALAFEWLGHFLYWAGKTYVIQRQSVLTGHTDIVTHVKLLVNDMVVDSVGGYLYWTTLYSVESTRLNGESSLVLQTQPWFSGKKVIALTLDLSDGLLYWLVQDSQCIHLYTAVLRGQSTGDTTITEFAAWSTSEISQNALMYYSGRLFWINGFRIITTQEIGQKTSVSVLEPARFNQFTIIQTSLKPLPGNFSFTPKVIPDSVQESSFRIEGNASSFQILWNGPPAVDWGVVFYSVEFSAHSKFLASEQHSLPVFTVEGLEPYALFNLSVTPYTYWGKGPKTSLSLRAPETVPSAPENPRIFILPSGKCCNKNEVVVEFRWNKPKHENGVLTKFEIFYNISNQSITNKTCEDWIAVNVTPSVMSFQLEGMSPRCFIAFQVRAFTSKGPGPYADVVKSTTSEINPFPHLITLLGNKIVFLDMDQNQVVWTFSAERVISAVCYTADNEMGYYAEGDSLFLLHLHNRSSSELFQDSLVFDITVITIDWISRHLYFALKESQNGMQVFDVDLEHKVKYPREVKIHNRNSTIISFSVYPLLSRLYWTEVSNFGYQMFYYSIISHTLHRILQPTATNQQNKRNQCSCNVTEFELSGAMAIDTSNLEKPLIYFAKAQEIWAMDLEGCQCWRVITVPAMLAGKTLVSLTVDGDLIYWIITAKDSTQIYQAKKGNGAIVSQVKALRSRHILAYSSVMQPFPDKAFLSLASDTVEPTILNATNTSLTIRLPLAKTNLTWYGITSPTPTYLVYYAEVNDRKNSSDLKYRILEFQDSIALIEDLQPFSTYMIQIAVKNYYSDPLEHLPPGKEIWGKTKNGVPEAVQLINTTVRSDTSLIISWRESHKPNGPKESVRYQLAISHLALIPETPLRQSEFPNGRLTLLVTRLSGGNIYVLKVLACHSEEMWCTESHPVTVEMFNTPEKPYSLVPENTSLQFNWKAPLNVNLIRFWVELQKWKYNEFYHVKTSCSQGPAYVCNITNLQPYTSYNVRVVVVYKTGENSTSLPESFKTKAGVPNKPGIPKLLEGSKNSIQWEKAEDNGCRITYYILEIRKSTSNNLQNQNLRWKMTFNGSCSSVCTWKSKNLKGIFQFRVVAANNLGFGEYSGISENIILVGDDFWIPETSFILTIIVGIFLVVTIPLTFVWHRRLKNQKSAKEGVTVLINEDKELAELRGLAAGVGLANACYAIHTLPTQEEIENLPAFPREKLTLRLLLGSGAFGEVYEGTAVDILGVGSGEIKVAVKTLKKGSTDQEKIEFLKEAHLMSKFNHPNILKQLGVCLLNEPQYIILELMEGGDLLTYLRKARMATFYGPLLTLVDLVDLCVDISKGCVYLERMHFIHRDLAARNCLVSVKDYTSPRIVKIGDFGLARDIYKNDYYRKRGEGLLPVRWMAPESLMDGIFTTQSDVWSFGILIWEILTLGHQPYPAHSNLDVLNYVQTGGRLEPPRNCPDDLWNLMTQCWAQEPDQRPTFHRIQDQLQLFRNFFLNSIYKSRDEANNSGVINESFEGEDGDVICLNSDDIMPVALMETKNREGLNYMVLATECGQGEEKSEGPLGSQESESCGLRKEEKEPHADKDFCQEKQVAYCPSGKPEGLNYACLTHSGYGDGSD

[3] = molecular target: T2, Mitogen-activated protein kinase 13 (Homo sapiens) (UniProt O15264); experiment: Selectivity interaction (Kinase panel (Invitrogen)) EUB0000639a MAPK13; settings: at 200 nM
T2 sequence (whole entry): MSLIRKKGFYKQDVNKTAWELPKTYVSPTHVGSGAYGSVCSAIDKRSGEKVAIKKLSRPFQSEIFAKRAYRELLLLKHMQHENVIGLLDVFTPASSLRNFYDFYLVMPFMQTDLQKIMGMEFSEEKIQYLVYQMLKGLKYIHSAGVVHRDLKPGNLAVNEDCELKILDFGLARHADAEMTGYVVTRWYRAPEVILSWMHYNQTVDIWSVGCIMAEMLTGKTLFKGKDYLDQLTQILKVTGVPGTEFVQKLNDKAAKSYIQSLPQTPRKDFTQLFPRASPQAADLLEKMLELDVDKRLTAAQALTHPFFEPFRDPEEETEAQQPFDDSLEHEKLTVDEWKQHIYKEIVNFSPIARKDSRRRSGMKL

[4] = molecular target: T3, Serine/threonine-protein kinase Nek1 (Homo sapiens) (UniProt Q96PY6); experiment: Selectivity interaction (KinomeScan (DiscoverX)) EUB0000607a NEK1; settings: at 10 µM
T3 sequence (whole entry): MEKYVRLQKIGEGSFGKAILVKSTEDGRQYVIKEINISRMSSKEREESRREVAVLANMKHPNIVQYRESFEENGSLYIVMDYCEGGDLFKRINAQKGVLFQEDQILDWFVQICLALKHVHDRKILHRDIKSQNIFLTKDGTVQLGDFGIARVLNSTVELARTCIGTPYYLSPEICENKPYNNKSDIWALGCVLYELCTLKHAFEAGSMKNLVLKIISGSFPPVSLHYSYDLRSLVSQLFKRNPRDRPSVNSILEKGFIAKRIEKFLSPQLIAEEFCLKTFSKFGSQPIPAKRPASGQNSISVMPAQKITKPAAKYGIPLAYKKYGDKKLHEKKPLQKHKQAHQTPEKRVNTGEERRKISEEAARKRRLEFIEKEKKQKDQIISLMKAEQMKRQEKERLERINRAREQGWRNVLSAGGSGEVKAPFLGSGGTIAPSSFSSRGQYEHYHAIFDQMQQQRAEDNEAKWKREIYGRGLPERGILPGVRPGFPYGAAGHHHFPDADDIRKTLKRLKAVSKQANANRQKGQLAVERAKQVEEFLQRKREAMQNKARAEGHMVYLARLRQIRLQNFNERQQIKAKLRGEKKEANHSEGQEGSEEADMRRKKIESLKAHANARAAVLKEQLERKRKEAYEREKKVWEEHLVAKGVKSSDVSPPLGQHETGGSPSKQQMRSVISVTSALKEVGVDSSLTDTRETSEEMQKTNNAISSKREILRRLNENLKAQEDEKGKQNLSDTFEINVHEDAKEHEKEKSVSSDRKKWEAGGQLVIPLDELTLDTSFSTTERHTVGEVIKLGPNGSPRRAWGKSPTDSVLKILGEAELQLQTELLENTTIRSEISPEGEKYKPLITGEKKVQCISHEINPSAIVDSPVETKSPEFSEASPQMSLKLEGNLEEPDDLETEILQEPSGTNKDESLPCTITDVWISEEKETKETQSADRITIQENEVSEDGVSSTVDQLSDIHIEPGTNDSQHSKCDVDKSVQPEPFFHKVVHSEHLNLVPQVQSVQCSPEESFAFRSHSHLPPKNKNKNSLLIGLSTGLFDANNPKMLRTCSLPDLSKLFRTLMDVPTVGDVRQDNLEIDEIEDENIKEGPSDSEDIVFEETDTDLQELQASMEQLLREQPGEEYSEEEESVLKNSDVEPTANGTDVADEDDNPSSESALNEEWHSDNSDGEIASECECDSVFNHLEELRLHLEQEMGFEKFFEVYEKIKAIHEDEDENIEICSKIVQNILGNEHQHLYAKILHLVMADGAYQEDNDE

Nc1cnc(N2CCc3cc(S(=O)(=O)Nc4c(F)cc(Cl)cc4F)cc(N4CCCC4=O)c32)nc1 [TP-020n]
% of control [1]: 100%
% of control [2]: 99%

CC[C@@H]1[C@H](F)C(=O)N[C@@H]1COc1nccc2cc(C(N)=O)c(OC)cc12 [ZIMLOVISERTIB]
% of inhibition [3]: 6.06%

CNC(=O)Nc1ccc(-c2nc(N3CC4CCC(C3)O4)c3cnn(C4CCC5(CC4)OCCO5)c3n2)cc1
% of control [4]: 100%
